Like-named read-outs stand apart in the source and are kept apart here.
Tests used:
[1] = system: HCV genotype 1a (H77 strain) replicon in HUH-7 cells; test: HCV replicon luciferase reporter assay, genotype 1a; format: cell-based; details: 3 days incubation
Outline: (§1)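 Twenty-point, threefold compound titrations (0.5% DMSO) were incubated 3 days at 37 °C with 3.0×10^3 HUH-7 cells/well in 4% FCS. The cells stably carried luciferase replicons: genotype 1b Con1 (S1179I) or 1a H77 (NS3 P1496L, NS5A S2204I). Renilla signal was read after 2 h with 7.5 μM EnduRen, and EC50 was taken from a four-parameter logistic fit. Cytotoxicity (CC50) was measured by Cell Titer-Blue, 8 h.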

[2] = system: HCV genotype 1b (Con1) replicon in HUH-7 cells; test: HCV replicon luciferase reporter assay, genotype 1b; format: cell-based; details: 3 days incubation
Outline: as §1

[3] = Hepatitis C virus, Huh-7, 72 h, HCV genotype 1a replicon luciferase, range class, read-out: LE_1a (EC50, range)
[4] = Hepatitis C virus, 72 h, HCV genotype 1b replicon luciferase, range class, read-out: LE_1b (EC50, range)
[5] = Hepatitis C virus, Huh-7, 72 h, HCV genotype 1a replicon luciferase, class symbols, read-out: LE_1a (EC50, range)
[6] = Hepatitis C virus, 72 h, HCV genotype 1b replicon luciferase, class symbols, read-out: LE_1b (EC50, range)

Compound: C[C@H]1CC/C=C\[C@@H]2C[C@@]2(C(=O)NS(=O)(=O)C2CC2)NC(=O)[C@@H]2C[C@@H](Oc3nccc4c5c(ccc34)OC(F)(F)O5)CN2C(=O)[C@@H](NC(=O)O[C@@H]2C[C@@H]3C[C@@H]3C2)[C@H](C)C1 [Compound 5273, (1R,3r,5S)-bicyclo[3.1.0]hexan-3-yl ((2R,6S,7R,9S,13aS,14aR,16aS,Z)-14a-((cyclopropylsulfonyl)carbamoyl)-2-((2,2-difluoro-[1,3]dioxolo[4,5-f]isoquinolin-6-yl)oxy)-7,9-dimethyl-5,16-dioxo-1,2,3,5,6,7,8,9,10,11,13a,14,14a,15,16,16a-hexadecahydrocyclopropa[e]pyrrolo[1,2-a][1,4]diazacyclopentadecin-6-yl)carbamate]
- EC50 [1, 3]: 4.82 to 103 nM
- EC50 [2, 4]: 4.82 to 103 nM

Compound: CC[C@@H]1C[C@H](C)CC/C=C\[C@@H]2C[C@@]2(C(=O)NS(=O)(=O)C2(C)CC2)NC(=O)[C@@H]2C[C@@H](Oc3nc4c(c5ccccc35)OCCC4)CN2C(=O)[C@H]1NC(=O)OC(C)(C)C(F)(F)F [Compound 6028, 1,1,1-trifluoro-2-methylpropan-2-yl ((2R,6S,7R,9R,13aS,14aR,16aS,Z)-2-((3,4-dihydro-2H-pyrano[3,2-c]isoquinolin-6-yl)oxy)-7-ethyl-9-methyl-14a-(((1-methylcyclopropyl)sulfonyl)carbamoyl)-5,16-dioxo-1,2,3,5,6,7,8,9,10,11,13a,14,14a,15,16,16a-hexadecahydrocyclopropa[e]pyrrolo[1,2-a][1,4]diazacyclopentadecin-6-yl)carbamate]
- EC50 [1, 3]: < 5.46 nM
- EC50 [2, 4]: < 5.46 nM

Compound: COc1ccc2c(O[C@@H]3C[C@H]4C(=O)N[C@]5(C(=O)NS(=O)(=O)C6CC6)C[C@H]5/C=C\CC[C@@H](C)C[C@@H](C)[C@H](NC(=O)O[C@@H]5C[C@@H]6C[C@@H]6C5)C(=O)N4C3)nc(-c3ccc(OC(C)C)nc3)cc2c1 [Compound 5219, (1R,3r,5S)-bicyclo[3.1.0]hexan-3-yl ((2R,6S,7R,9R,13aS,14aR,16aS,Z)-14a-((cyclopropylsulfonyl)carbamoyl)-2-((3-(6-isopropoxypyridin-3-yl)-6-methoxyisoquinolin-1-yl)oxy)-7,9-dimethyl-5,16-dioxo-1,2,3,5,6,7,8,9,10,11,13a,14,14a,15,16,16a-hexadecahydrocyclopropa[e]pyrrolo[1,2-a][1,4]diazacyclopentadecin-6-yl)carbamate]
- EC50 [1, 3]: < 5.46 nM
- EC50 [2, 4]: < 5.46 nM

Compound: CC[C@@H]1C[C@H](C)CC/C=C\[C@@H]2C[C@@]2(C(=O)NS(=O)(=O)C2(CF)CC2)NC(=O)[C@@H]2C[C@@H](Oc3nccc4c5c(ccc34)N(C)CCO5)CN2C(=O)[C@H]1NC(=O)OC(C)(C)C(C)(F)F [Compound 5324, 3,3-difluoro-2-methylbutan-2-yl ((2R,6S,7R,9R,13aS,14aR,16aS,Z)-7-ethyl-14a-(((1-(fluoromethyl)cyclopropyl)sulfonyl)carbamoyl)-9-methyl-2-((4-methyl-3,4-dihydro-2H-[1,4]oxazino[2,3-f]isoquinolin-7-yl)oxy)-5,16-dioxo-1,2,3,5,6,7,8,9,10,11,13a,14,14a,15,16,16a-hexadecahydrocyclopropa[e]pyrrolo[1,2-a][1,4]diazacyclopentadecin-6-yl)carbamate]
- EC50 [1, 3]: < 5.46 nM
- EC50 [2, 4]: < 5.46 nM

Compound: 1,1,1-trifluoro-2-methylpropan-2-yl ((2R,6S,7R,9S,13aS,14aR,16aS,Z)-7-ethyl-14a-(((1-(fluoromethyl)cyclopropyl)sulfonyl)carbamoyl)-9-methyl-2-((4-methyl-3,4-dihydro-2H-[1,4]oxazino[2,3-f]isoquinolin-7-yl)oxy)-5,16-dioxo-1,2,3,5,6,7,8,9,10,11,13a,14,14a,15,16,16a-hexadecahydrocyclopropa[e]pyrrolo[1,2-a][1,4]diazacyclopentadecin-6-yl)carbamate [Compound 5319]
- EC50 ([1]; HCV genotype 1a replicon luciferase, read-out: LE_1a (EC50)): 33.6 nM
- EC50 ([2]; HCV genotype 1b replicon luciferase, read-out: LE_1b (EC50)): 14.2 nM

Compound: [2H]C([2H])([2H])C(C)(OC(=O)N[C@@H]1C(=O)N2C[C@H](Oc3nccc4cc(OC)ccc34)C[C@H]2C(=O)N[C@]2(C(=O)NS(=O)(=O)C3(C)CC3)C[C@H]2/C=C\CC[C@H](C)C[C@H]1C)C([2H])([2H])[2H] [Compound 5176, 1,1,1,3,3,3-hexadeutero-2-methylpropan-2-yl ((2R,6S,7R,9S,13aS,14aR,16aS,Z)-2-((6-methoxyisoquinolin-1-yl)oxy)-7,9-dimethyl-14a-(((1-methylcyclopropyl)sulfonyl)carbamoyl)-5,16-dioxo-1,2,3,5,6,7,8,9,10,11,13a,14,14a,15,16,16a-hexadecahydrocyclopropa[e]pyrrolo[1,2-a][1,4]diazacyclopentadecin-6-yl)carbamate]
- EC50 [1, 3]: 4.82 to 103 nM
- EC50 [2, 4]: < 5.46 nM

Compound: COc1ccc2c(O[C@@H]3CC4C(=O)N[C@]5(C(=O)NS(=O)(=O)C6(F)CC6)C[C@H]5/C=C\CC[C@@H](C)C[C@@H](C)[C@H](NC(=O)C(C)(C)C)C(=O)N4C3)nccc2c1 (stereo partly drawn) [Compound 4015]
- EC50 [1, 5]: < 5.46 nM
- EC50 [2, 6]: < 5.46 nM

Compound: COc1ccc2c(O[C@@H]3C[C@H]4C(=O)N[C@]5(C(=O)NS(=O)(=O)C6(C)CC6)C[C@H]5/C=C\CC[C@@H](C)C[C@@H](C)[C@H](NC(=O)OC(C)(C)C)C(=O)N4C3)ncc(N3CCN(S(C)(=O)=O)CC3)c2c1 [Compound 4121, tert-butyl (2R,6S,7R,9R,13aS,14aR,16aS,Z)-2-(6-methoxy-4-(4-(methylsulfonyl)piperazin-1-yl)isoquinolin-1-yloxy)-7,9-dimethyl-14a-(1-methylcyclopropylsulfonylcarbamoyl)-5,16-dioxo-1,2,3,5,6,7,8,9,10,11,13a,14,14a,15,16,16a-hexadecahydrocyclopropa[e]pyrrolo[1,2-a][1,4]diazacyclopentadecin-6-ylcarbamate]
- EC50 [1, 5]: < 5.46 nM
- EC50 [2, 6]: < 5.46 nM

Compound: C[C@@H]1CC/C=C\[C@@H]2C[C@@]2(C(=O)NS(=O)(=O)C2(CF)CC2)NC(=O)[C@@H]2C[C@@H](Oc3nc4c(c5ccccc35)OCCC4)CN2C(=O)[C@@H](NC(=O)OC(C)(C)C(C)(F)F)[C@H](C)C1 [Compound 6032, 3,3-difluoro-2-methylbutan-2-yl ((2R,6S,7R,9R,13aS,14aR,16aS,Z)-2-((3,4-dihydro-2H-pyrano[3,2-c]isoquinolin-6-yl)oxy)-14a-(((1-(fluoromethyl)cyclopropyl)sulfonyl)carbamoyl)-7,9-dimethyl-5,16-dioxo-1,2,3,5,6,7,8,9,10,11,13a,14,14a,15,16,16a-hexadecahydrocyclopropa[e]pyrrolo[1,2-a][1,4]diazacyclopentadecin-6-yl)carbamate]
- EC50 [1, 3]: < 5.46 nM
- EC50 [2, 4]: < 5.46 nM

Compound: COc1ccc2c(O[C@@H]3C[C@H]4C(=O)N[C@]5(C(=O)NS(=O)(=O)C6(CF)CC6)C[C@H]5/C=C\CC[C@H](C)C[C@@H](C)[C@H](NC(=O)OC(C)(C)C(F)(F)F)C(=O)N4C3)nc(N(C)C)cc2c1 [Compound 3126, 1,1,1-trifluoro-2-methylpropan-2-yl ((2R,6S,7R,9S,13aS,14aR,16aS,Z)-2-((3-(dimethylamino)-6-methoxyisoquinolin-1-yl)oxy)-14a-(((1-(fluoromethyl)cyclopropyl)sulfonyl)carbamoyl)-7,9-dimethyl-5,16-dioxo-1,2,3,5,6,7,8,9,10,11,13a,14,14a,15,16,16a-hexadecahydrocyclopropa[e]pyrrolo[1,2-a][1,4]diazacyclopentadecin-6-yl)carbamate]
- EC50 ([1]; Hepatitis C virus, Huh-7, 72 h, HCV genotype 1a replicon luciferase reporter, range class, read-out: LE_1a (EC50, range)): 4.82 to 103 nM
- EC50 ([2]; Hepatitis C virus, 72 h, HCV genotype 1b replicon luciferase reporter, range class, read-out: LE_1b (EC50, range)): 4.82 to 103 nM

Compound: CC[C@@H]1C[C@H](C)CC/C=C\[C@@H]2C[C@@]2(C(=O)NS(=O)(=O)C2CC2)NC(=O)[C@@H]2C[C@@H](Oc3ncc(OC)c4ccccc34)CN2C(=O)[C@H]1NC(=O)OC(C)(C)C(F)(F)F [Compound 4008, 1,1,1-trifluoro-2-methylpropan-2-yl (2R,6S,7R,9R,13aS,14aR,16aS,Z)-14a-(cyclopropylsulfonylcarbamoyl)-7-ethyl-2-(4-methoxyisoquinolin-1-yloxy)-9-methyl-5,16-dioxo-1,2,3,5,6,7,8,9,10,11,13a,14,14a,15,16,16a-hexadecahydrocyclopropa[e]pyrrolo[1,2-a][1,4]diazacyclopentadecin-6-ylcarbamate]
- EC50 [1, 5]: < 5.46 nM
- EC50 [2, 6]: < 5.46 nM

Compound: [2H]C([2H])([2H])C(C)(OC(=O)N[C@@H]1C(=O)N2C[C@H](Oc3nccc4cc(OC)ccc34)C[C@H]2C(=O)N[C@]2(C(=O)NS(=O)(=O)C3(C)CC3)C[C@H]2/C=C\CC[C@@H](C)C[C@H]1C)C([2H])([2H])[2H] [Compound 5177, 1,1,1,3,3,3-hexadeutero-2-methylpropan-2-yl ((2R,6S,7R,9R,13aS,14aR,16aS,Z)-2-((6-methoxyisoquinolin-1-yl)oxy)-7,9-dimethyl-14a-(((1-methylcyclopropyl)sulfonyl)carbamoyl)-5,16-dioxo-1,2,3,5,6,7,8,9,10,11,13a,14,14a,15,16,16a-hexadecahydrocyclopropa[e]pyrrolo[1,2-a][1,4]diazacyclopentadecin-6-yl)carbamate]
- EC50 [1, 3]: < 5.46 nM
- EC50 [2, 4]: < 5.46 nM
